Drawing on BindingDB's records for doi:10.7270/Q27P8WT7 (Srmlsc, 2008), this text covers EC50 for 38 molecules.

As usually defined, the EC50 is the concentration at which the effect is half-maximal. A lower EC50 goes with higher potency in that assay.

For this test the following is noted: inactive by the depositor's call.

`Cc1ccc(OCc2nnc(-c3ccccn3)[nH]2)cc1`: a half-maximal effect (EC50) was put at 78.8 µM.

With `COc1ccc(C2=NOC(CN3C(=O)c4ccccc4S3(=O)=O)C2)cc1` (stereo not drawn), a half-maximal response (EC50) required 55 µM. The EC50 values of the last two molecules are within 1.5-fold of each other.

With `Nc1ccccc1C(=O)/C=C/c1ccc2c(c1)OCO2`, the EC50 worked out at 55.6 µM.

Molecule `COc1ccc2c3c(cccc13)C(=O)N(O)C2=O` yielded an EC50 of 41.6 µM.

`Fc1ccc(NC(=S)Nc2nccs2)cc1` [1-(4-fluorophenyl)-3-(1,3-thiazol-2-yl)thiourea] displayed an EC50 of 35.6 µM. This EC50 and that of the molecule before are within 1.5-fold of each other.

Take `Brc1ccccc1OCCCn1cnc2ccccc21` [1-[3-(2-bromanylphenoxy)propyl]benzimidazole]: the EC50 came to 62.3 µM.

For the molecule `CCCCNC(=S)Nc1ccc(-c2nc3ccc(C)cc3s2)cc1` [1-butyl-3-[4-(6-methyl-1,3-benzothiazol-2-yl)phenyl]thiourea], the concentration giving a half-maximal response (EC50) was found to be 39.6 µM.

Molecule `O=C(Nc1ccccc1)c1ccc2c(c1)OCCO2` [2,3-Dihydro-benzo[1,4]dioxine-6-carboxylic acid phenylamide] gave an EC50 of 41.7 µM. The EC50 values of the last two molecules are within 1.5-fold of each other.

The molecule `O=C1CCCc2nc(N3CCc4ccccc43)ncc21` [2-(2,3-dihydroindol-1-yl)-7,8-dihydro-6H-quinazolin-5-one] gave a concentration giving a half-maximal response (EC50) of 84.7 µM.

For the molecule `NC(=NOC(=O)COc1ccccc1Cl)c1ccccn1` [2-(2-chlorophenoxy)acetic acid [(Z)-[amino(2-pyridinyl)methylidene]amino] ester], a half-maximal effect (EC50) was put at 39.1 µM.

On to `NC(=O)Cc1ccc2sc(-c3ccccc3)nc2c1` [2-(2-phenyl-1,3-benzothiazol-5-yl)acetamide], for which the EC50 came to 36.5 µM. This EC50 and that of the molecule before are within 1.5-fold of each other.

As to `Cc1ccc2sc(NC(=O)CSc3nc(C)cc(C)c3C#N)nc2c1` [2-(3-Cyano-4,6-dimethyl-pyridin-2-ylsulfanyl)-N-(5-methyl-benzothiazol-2-yl)-acetamide], the EC50 stood at 31.8 µM. This EC50 and that of the molecule before are within 1.5-fold of each other.

On to `Cc1ccn2c(c1)nc(=S)n2C(=O)c1ccco1` [2-furanyl-(7-methyl-2-sulfanylidene-[1,2,4]triazolo[1,5-a]pyridin-3-yl)methanone], for which the response was half-maximal at 56.4 µM (EC50).

`Cc1ccnc(NC(=O)c2cc3ccccc3oc2=O)c1` [2-keto-N-(4-methyl-2-pyridyl)chromene-3-carboxamide] displayed an EC50 of 47.2 µM.

In turn, `O=c1oc(-c2ccccc2)nc2sc3c(c12)CCCC3` [2-phenyl-5,6,7,8-tetrahydro-4H-[1]benzothieno[2,3-d][1,3]oxazin-4-one] registered an EC50 of 69.5 µM. The EC50 values of the last two molecules are within 1.5-fold of each other.

Consider `COc1nc(-c2ccccc2)nnc1-c1ccccc1` [3,6-diphenyl-1,2,4-triazin-5-yl methyl ether], for which the EC50 is 38.9 µM.

`COc1ccc(C2=Nc3ccccc3OC2)cc1` [3-(4-methoxyphenyl)-2H-1,4-benzoxazine] registered an EC50 of 45.6 µM. This EC50 and that of the molecule before are within 1.5-fold of each other.

`c1ccc(CSc2ccc(-c3ccccn3)nn2)cc1` [3-(benzylthio)-6-(2-pyridyl)pyridazine] yielded an EC50 of 45.1 µM. This EC50 and that of the molecule before are within 1.5-fold of each other.

`CCOc1ccc(C(=O)Nc2cccc(C(=O)O)c2)cc1Cl` [3-[(3-chloranyl-4-ethoxy-phenyl)carbonylamino]benzoic acid] had an EC50 of 47.8 µM. This EC50 and that of the molecule before are within 1.5-fold of each other.

Consider `CCn1cnc2sc(-c3ccccc3)cc2c1=O` [3-ethyl-6-phenyl-4-thieno[2,3-d]pyrimidinone], for which the half-maximal effective concentration (EC50) was determined as 35.2 µM.

Molecule `O=C(Nc1ccc2c(c1)CCC2)c1cccc(F)c1` [3-fluoro-N-indan-5-yl-benzamide] showed an EC50 of 50.2 µM.

On to `Nc1nc(-c2ccc3ccccc3c2)cs1` [4-(2-naphthalenyl)-2-thiazolamine], for which a half-maximal effect (EC50) was put at 35.5 µM. The EC50 values of the last two molecules are within 1.5-fold of each other.

On to `Nc1c(-c2ccccc2)cnn1-c1ccc(C(=O)O)cc1` [4-(5-amino-4-phenyl-1-pyrazolyl)benzoic acid], for which the EC50 came out at 46.2 µM.

In turn, `CCCCSc1ncc(C(=O)OCC)c(N)n1` [4-Amino-2-butylsulfanyl-pyrimidine-5-carboxylic acid ethyl ester] showed an EC50 of 46.2 µM.

For `COc1ccc(-c2cn3cc(C(F)(F)F)cc(Cl)c3n2)cc1` [4-[8-chloro-6-(trifluoromethyl)imidazo[1,2-a]pyridin-2-yl]phenyl methyl ether], it took 64.2 µM to reach a half-maximal effect (EC50).

Molecule `CCOC(=O)c1nn(-c2ccc(C)cc2)cc1C(=O)c1ccccc1` [4-benzoyl-1-(4-methylphenyl)-3-pyrazolecarboxylic acid ethyl ester] had an EC50 of 36.7 µM.

`COc1ccc(C(=O)Oc2c(CN3CCOCC3)cc(Cl)c3cccnc23)cc1` [4-methoxybenzoic acid [5-chloro-7-(4-morpholinylmethyl)-8-quinolinyl] ester] had an EC50 of 46.5 µM.

For `Oc1ccc(CN2CCCCC2)c2cccnc12` [5-(1-piperidinylmethyl)-8-quinolinol], the EC50 worked out at 53.8 µM.

The molecule `Cc1cccc(-c2cc(N)n(-c3ccccc3)n2)c1` [5-(3-methylphenyl)-2-phenyl-3-pyrazolamine] displayed an EC50 of 80.1 µM.

As to `Cn1nnc(-c2ccc(OCc3ccccc3F)cc2)n1` [5-[4-(2-fluorobenzyl)oxyphenyl]-2-methyl-tetrazole], a half-maximal effect (EC50) was put at 69.3 µM.

`COc1ccc2c(c1OC)C(=O)N(c1cccc(C(F)(F)F)c1)C2` [6,7-dimethoxy-2-[3-(trifluoromethyl)phenyl]-3H-isoindol-1-one]: the EC50 was found to be 69.9 µM. The EC50 values of the last two molecules are within 1.5-fold of each other.

With `CCCNC(=O)c1noc2c1CCc1cc(OC)ccc1-2` [7-methoxy-N-propyl-4,5-dihydrobenz[g]indoxazene-3-carboxamide], the EC50 came to 39.9 µM.

`COc1ccc(OC(=O)c2cnn(-c3ccccc3)c2C)cc1` [(4-methoxyphenyl) 5-methyl-1-phenyl-pyrazole-4-carboxylate] returned an EC50 of 49.5 µM. This EC50 and that of the molecule before are within 1.5-fold of each other.

On to `Cc1ccc(NC(=O)c2noc3c2CCCCC3)cc1` [MLS000087401], for which the EC50 is 33.6 µM.

`CN(C)/C=N/c1ccc2nn(-c3ccccc3)nc2c1` [MLS000105162]: it took 42.9 µM to reach a half-maximal effect (EC50).

`S=C(c1ccc(-c2cccc(Cl)c2)o1)N1CCOCC1` [MLS000107692] yielded an EC50 of 89.6 µM. Against the preceding molecule, the EC50 is about 2.1-fold higher.

With `Cc1cccc(NC(=O)c2ccc3ccccc3n2)c1C` [MLS000569762], the midpoint of the response, the EC50, lay at 84.4 µM. The EC50 values of the last two molecules are within 1.5-fold of each other.

Molecule `CC(C)=CC(=O)Nc1ccc(Br)cc1` [N-(4-bromophenyl)-3-methylbut-2-enamide] returned an EC50 of 46.4 µM.
